# Activity calls are given as the source filed them.
# Legend:
# [1] = molecular target: Metabotropic glutamate receptor 3 (Rattus norvegicus, UniProt P31422); test: inhibition of rat mGlu3 glutamate signaling – HEK/GIRK cells, thallium flux, dose response (AID 651839); assay type: functional
# Galanin receptor type 3 = Galanin receptor type 3 (Homo sapiens, UniProt O60755); test: Fluorescence-based cell-based primary high throughput dose response assay to identify antagonists of the Galanin Receptor 3 (GalR3).; assay type: functional
# cells [2] = assay type: functional, cell-based; conditions: HEK-CNG
# [3] = NIH-3T3 fibroblast cytotoxicity, dose response, cytotoxicity control, cell-based, fluorescence, Alamar Blue, secondary assay (AID 2327); assay type: functional;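 note: NIH-3T3 mouse fibroblasts cultured with fluconazole at 8 µg/mL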
# [4] = test system: Streptococcus sp. 'group A'; test: Streptococcus pyogenes SK(-)GAS viability under kanamycin – luminescence, BacTiterGlo, confirmation, counter-screen for streptokinase expression inhibitor project, dose response (AID 1900); assay type: functional, organism-based
# BJ [5] = test: BJ-TERT fibroblast viability loss – cell-based, RAS-independent, luminescence, dose response (AID 1933); assay type: functional; conditions: Homo sapiens
# Streptokinase A = molecular target: T1, Streptokinase A (Streptococcus pyogenes serotype M1, UniProt P10520); test: viability-normalized secreted streptokinase activity reduction – plasminogen activation absorbance, OD405, dose response (AID 1914); assay type: functional, Streptococcus pyogenes M1 GAS;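 note: secreted streptokinase activity via plasminogen activation per viability signal from cell pellet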
# T1 sequence (P10520 whole entry): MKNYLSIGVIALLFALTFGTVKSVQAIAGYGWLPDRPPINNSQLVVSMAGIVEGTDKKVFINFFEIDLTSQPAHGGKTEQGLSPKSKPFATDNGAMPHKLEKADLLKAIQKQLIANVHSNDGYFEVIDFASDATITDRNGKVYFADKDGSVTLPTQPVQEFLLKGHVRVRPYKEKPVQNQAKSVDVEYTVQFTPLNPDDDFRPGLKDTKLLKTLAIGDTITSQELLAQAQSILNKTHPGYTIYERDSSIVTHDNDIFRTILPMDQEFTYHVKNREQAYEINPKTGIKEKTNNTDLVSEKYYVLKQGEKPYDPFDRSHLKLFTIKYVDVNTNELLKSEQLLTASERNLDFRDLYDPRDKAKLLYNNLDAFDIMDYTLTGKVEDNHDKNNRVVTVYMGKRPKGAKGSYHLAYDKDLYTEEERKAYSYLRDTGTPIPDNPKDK
# BJ [6] = test: cells; assay type: functional, cell-based; conditions: Homo sapiens
# [7] = fluconazole-exposed Candida albicans growth modulators – fluorescence, retest, confirmation (AID 2467); assay type: functional, cell-based
# [8] = microbe, parasite or virus in culture; assay type: functional; conditions: Mycobacterium tuberculosis
# BJ [9] = test: BJ-TERT-LT-ST fibroblast viability loss – cell-based, RAS-independent, luminescence, dose response (AID 1935); assay type: functional; conditions: Homo sapiens;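 note: BJ fibroblasts immortalized with TERT plus LT and ST oncogenes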
# [10] = DRD fibroblast viability loss – cell-based, non-viral oncogenic, luminescence, dose response (AID 1934); assay type: functional; conditions: Homo sapiens
# [11] = molecular target: Induced myeloid leukemia cell differentiation protein Mcl-1 (Homo sapiens, UniProt Q07820); assay type: functional
# Streptococcus = test: GAS UMAA2166 growth inhibition – luminescence, BacTiterGlo, counter-screen for streptokinase expression inhibitor project, dose response (AID 1915); assay type: functional, organism-based;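 note: potency for reduction of bacterial viability or growth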
# [12] = THP-1 cell cytotoxicity, dose response, cytotoxicity control for non-replicating M. tuberculosis project (AID 489025); assay type: functional
# [13] = HepG2 cell cytotoxicity, dose response, cytotoxicity control for non-replicating M. tuberculosis project (AID 489018); assay type: functional; conditions: Mycobacterium tuberculosis
# [14] = Vero E6 cell cytotoxicity, dose response, cytotoxicity control for non-replicating M. tuberculosis project, secondary assay (AID 492998); assay type: functional, VeroE6; conditions: Vero C1008
# [15] = molecular target: T2, Heat shock factor protein 1 (Mus musculus, UniProt P38532); test: enhancement of HSF1-driven luciferase signal – cell-based, NIH3T3, luminescence, dose retest, confirmation (AID 435004); assay type: functional;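 note: stress induced by proteasome inhibitor MG132 added 30 min after compound; luciferase reporter driven by HSF1 response element in NIH3T3 cells; actives raise luminescence as potentiators of the MG132 stress response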
# T2 sequence (P38532 whole entry): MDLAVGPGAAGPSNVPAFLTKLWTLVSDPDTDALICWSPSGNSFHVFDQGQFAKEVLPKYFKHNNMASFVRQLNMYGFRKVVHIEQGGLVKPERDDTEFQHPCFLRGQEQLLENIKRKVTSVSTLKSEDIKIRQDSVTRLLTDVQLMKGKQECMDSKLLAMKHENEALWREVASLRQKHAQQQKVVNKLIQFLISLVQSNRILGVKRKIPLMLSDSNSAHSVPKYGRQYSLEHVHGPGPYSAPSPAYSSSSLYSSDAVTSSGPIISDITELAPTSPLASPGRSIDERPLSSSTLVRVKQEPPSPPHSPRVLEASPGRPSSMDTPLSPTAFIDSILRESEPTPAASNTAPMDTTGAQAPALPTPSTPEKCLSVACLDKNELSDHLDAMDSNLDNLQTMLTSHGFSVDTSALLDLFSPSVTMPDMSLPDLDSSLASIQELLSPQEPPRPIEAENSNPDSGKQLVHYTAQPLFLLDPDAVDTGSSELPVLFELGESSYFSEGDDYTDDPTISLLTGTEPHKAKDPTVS
# cells [16] = assay type: functional
# INS1 = test: INS-1E survival protection against cytokine death – cell-based, luminescence, retest, dose response (AID 449756); assay type: functional; conditions: Rattus norvegicus;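 note: cell death triggered by IL-1 beta plus TNF-alpha plus IFN-gamma mixture; protective hits raise ATP signal compared with cytokine alone wells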
# [17] = molecular target: Dual specificity tyrosine-phosphorylation-regulated kinase 1A (Rattus norvegicus, UniProt Q63470); assay type: biochemical, Homo sapiens
# P388/ADR = test: cells; assay type: functional; conditions: Mus musculus
# Melanocortin receptor 4 = Melanocortin receptor 4 (Homo sapiens, UniProt P32245); assay type: functional, cell-based;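 note: Cell-based assay with luminescence read-out, confirmatory dose-response testing for agonist activity of biased ligands at MC4R; human U2OS cells with tagged receptor and beta-arrestin; potency of agonists that increase receptor coupling to beta-arrestin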
# SN12K1 = test: cells; assay type: functional; conditions: Homo sapiens
# P388 = test: cells; assay type: functional; conditions: Mus musculus
# [18] = viability loss in HeLa cells – cytotoxicity control for MgcRacGAP inhibitor project, dose response (AID 624300); assay type: functional
# [19] = molecular target: T3, Rac GTPase-activating protein 1 (Homo sapiens, UniProt Q9H0H5); test: blockers of MgcRacGAP-driven Rac1 GTP hydrolysis – biochemical, ADP Hunter fluorescence, primary and confirmatory, confirmation (AID 624330); assay type: functional
# T3 sequence (Q9H0H5 whole entry): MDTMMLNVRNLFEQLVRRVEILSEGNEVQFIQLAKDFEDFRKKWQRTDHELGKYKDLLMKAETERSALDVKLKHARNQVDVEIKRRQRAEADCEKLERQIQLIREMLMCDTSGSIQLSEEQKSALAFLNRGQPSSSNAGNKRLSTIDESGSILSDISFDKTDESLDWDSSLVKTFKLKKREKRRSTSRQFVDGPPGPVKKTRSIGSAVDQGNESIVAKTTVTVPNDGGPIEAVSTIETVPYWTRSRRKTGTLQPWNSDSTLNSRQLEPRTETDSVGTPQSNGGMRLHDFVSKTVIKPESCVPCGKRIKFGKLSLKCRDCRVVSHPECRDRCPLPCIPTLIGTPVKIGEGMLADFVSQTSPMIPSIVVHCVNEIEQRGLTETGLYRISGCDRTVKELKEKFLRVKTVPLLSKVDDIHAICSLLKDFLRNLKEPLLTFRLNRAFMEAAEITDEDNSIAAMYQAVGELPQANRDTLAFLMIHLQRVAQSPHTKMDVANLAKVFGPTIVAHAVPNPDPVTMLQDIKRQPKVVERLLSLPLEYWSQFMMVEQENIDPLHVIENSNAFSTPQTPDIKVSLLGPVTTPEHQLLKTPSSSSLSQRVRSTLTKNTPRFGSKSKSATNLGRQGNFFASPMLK
# [20] = molecular target: SWI/SNF-related matrix-associated actin-dependent regulator of chromatin subfamily A member 2 (Homo sapiens, UniProt P51531); test: Luminescence-based cell-based high throughput dose response assay to identify activators of the function of SWI/SNF related, matrix associated, actin dependent regulator of chromatin, subfamily a, member 2 (SMARCA2, BRM).; assay type: functional
# [21] = Counterscreen for activators of the function of SWI/SNF related, matrix associated, actin dependent regulator of chromatin, subfamily a, member 2 (SMARCA2, BRM): Luminescence-based cell-based high throughput dose response assay to identify non-selective compounds using the VP16 reporter assay.; assay type: functional
# [22] = molecular target: T4, DNA repair protein RAD52 homolog (Homo sapiens, UniProt P43351); assay type: functional, biochemical
# T4 sequence (P43351 whole entry): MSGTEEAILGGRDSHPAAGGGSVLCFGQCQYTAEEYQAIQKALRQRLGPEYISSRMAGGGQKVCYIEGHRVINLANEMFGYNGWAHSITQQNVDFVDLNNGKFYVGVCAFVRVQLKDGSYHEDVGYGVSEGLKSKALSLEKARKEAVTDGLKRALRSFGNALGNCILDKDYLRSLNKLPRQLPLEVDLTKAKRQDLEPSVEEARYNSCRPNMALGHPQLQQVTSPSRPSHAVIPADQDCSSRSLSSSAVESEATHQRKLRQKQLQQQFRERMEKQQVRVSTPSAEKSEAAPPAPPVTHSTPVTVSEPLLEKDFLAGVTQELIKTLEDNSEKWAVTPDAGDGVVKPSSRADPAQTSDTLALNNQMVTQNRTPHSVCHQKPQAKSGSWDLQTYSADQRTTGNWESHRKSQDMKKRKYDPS
# HEK293 [23] = test: cells; conditions: Homo sapiens
# HEK293 [24] = test: cells; conditions: Homo sapiens; remark: listed apart in the source
# Major prion protein = Major prion protein (Homo sapiens, UniProt P04156); assay type: functional, cell-based
# cells [25] = test: cells
# [26] = molecular target: Protein disulfide-isomerase (Homo sapiens, UniProt P07237); test: inhibition of PDI-mediated insulin reduction – biochemical, turbidity, dry powder samples, set 2, confirmation (AID 652146)
# [27] = activation of miR-122 Renilla sensor silencing – cell-based, Huh7 psiCHECK-miR122, Renilla luciferase, cherry-picked, dose response (AID 651956); assay type: functional;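 note: huh7 hepatoma cells stably carrying a psiCHECK-2 miR-122 sensor plasmid; renilla luciferase signal reporting endogenous miR-122 activity after 48 h compound exposure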
# [28] = general mammalian cell viability loss – inhibitor set, cherry-pick, set 2, cytotoxicity control for miR-122 modulator project, dose response (AID 720697); assay type: functional, cell-based
# [29] = general mammalian cell viability loss – activator set, cherry-pick, cytotoxicity control for miR-122 modulator project, dose response (AID 720690); assay type: functional, cell-based;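 note: HEK293T human cells scored for general mammalian cytotoxicity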
structure (smiles),measurement,setting,value
COc1ccc(C#Cc2ccc(C(=O)N3CCC[C@@H](CO)C3)cc2)c(F)c1,IC50,[1],4.92 µM
CC1(CSc2ccccc2)CC(=O)N1 (stereo not drawn),IC50,Galanin receptor type 3,> 29.9 µM (inactive)
same,EC50,cells [2],> 29.9 µM (inactive)
COc1ccc2[nH]c3c(C)c4ccncc4c(C)c3c2c1,EC50,[3],4.36 µM (inconclusive)
same,EC50,[4],2.52 µM (active)
same,EC50,BJ [5],3.65 µM (inconclusive)
same,EC50,Streptokinase A,> 150 µM (not active)
same,EC50,BJ [6],9.28 µM (inconclusive)
same,EC50,[7],0.698 µM (active)
same,CC50,[8],0.838 µM (active)
same,EC50,BJ [9],4.95 µM (inconclusive)
same,EC50,[10],2.51 µM (active)
same,IC50,[11],> 54 µM (active)
same,EC50,Streptococcus,8.86 µM (active)
same,CC50,[12],2.94 µM (active)
same,CC50,[13],8.79 µM (active)
same,CC50,[14],0.93 µM (active)
same,EC50,[15],> 260 µM (inconclusive)
same,IC50,cells [16],0.37 µM (active)
same,AC50,INS1,1.93 µM (active)
same,AC50,[17],2.86 µM (active)
same,GI50,P388/ADR,0.439 µM (active)
same,EC50,Melanocortin receptor 4,> 89.3 µM (inactive)
same,GI50,SN12K1,0.245 µM (active)
same,GI50,P388,0.239 µM (active)
same,CC50,[18],31.2 µM (active)
same,IC50,[19],28.8 µM (active)
same,EC50,[20],> 3.38 µM (active)
same,EC50,[21],> 91.3 µM (inactive)
same,AC50,[22],< 11.1 µM (active)
same,EC50,HEK293 [23],> 59.7 µM (inactive)
same,EC50,HEK293 [24],> 59.7 µM (inactive)
CCOc1ccc(-n2nc3c(S)nnc(C)c3c2C)cc1,IC50,Major prion protein,0.321 µM (active)
same,IC50,cells [25],> 138 µM (inactive)
CCOC(=O)C1(CCOC)CCN(Cc2ccc(O)c(Cl)c2)CC1,AC50,[26],> 30 µM (inactive)
C[C@H](CO)N1C[C@H](C)[C@H](CN(C)CC2CCCCC2)Oc2ccc(NC(=O)Nc3ccc(C(F)(F)F)cc3)cc2C1=O,AC50,[27],31.5 µM (active)
same,AC50,[28],15.1 µM (active)
same,AC50,[29],17.1 µM (active)

# Reference: ChEMBL document CHEMBL1201862, “PubChem BioAssay data set” (2004)
